The results in this text go back to US20040086880A1, “Method of producing nucleic acid molecules with reduced secondary structure” (priority 1999, published 2004).

One test concerns the target T1, Bst DNA polymerase (Geobacillus stearothermophilus, UniProt P52026).
T1 sequence (P52026 1-876): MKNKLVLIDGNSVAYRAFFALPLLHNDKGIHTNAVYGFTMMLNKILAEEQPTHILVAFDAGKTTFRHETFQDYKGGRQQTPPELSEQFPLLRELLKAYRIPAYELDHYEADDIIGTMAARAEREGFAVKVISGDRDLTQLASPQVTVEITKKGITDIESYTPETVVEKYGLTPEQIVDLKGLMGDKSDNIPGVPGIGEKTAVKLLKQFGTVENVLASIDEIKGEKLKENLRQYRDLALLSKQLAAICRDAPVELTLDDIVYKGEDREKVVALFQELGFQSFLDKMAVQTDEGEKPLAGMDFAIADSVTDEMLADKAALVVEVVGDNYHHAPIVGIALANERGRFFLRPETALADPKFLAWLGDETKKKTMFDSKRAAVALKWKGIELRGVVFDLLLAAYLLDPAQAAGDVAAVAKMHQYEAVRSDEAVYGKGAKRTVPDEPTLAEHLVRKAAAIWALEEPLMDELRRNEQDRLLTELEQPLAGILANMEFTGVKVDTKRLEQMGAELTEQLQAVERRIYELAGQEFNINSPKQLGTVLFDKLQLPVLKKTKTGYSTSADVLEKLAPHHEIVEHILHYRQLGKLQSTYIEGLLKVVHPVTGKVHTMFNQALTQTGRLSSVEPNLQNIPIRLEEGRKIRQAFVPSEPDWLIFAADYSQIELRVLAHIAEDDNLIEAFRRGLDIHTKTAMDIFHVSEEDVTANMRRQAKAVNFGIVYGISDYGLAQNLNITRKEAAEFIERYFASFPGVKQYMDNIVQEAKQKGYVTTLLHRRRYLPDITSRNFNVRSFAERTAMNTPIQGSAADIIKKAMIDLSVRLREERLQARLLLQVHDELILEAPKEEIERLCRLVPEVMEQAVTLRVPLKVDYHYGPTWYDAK
The test can be described thus: Synthesis of single-stranded 56-mer by primer extension and lambda exonuclease digestion. The class given is biochemical. The settings on record: substituted for dATP and dTTP; for full-length 56-mer product: 65° C., 30 minutes. The method, then: Unstructured single-stranded UNA was generated by incorporating 2-aminoadenosine and 2-thiothymidine nucleotides using a 14-mer primer and 56-mer template (5′-phosphorylated) and Bst DNA polymerase followed by digestion of the DNA template with lambda exonuclease (FIG. 6). Ten microliter extension reactions were performed in 0.65 ml pre-siliconized microfuge tubes containing the following components: 20 mM Tris-Cl (pH 8.8 @ 25° C.), 10 mM KCl, 10 mM (NH4)2SO4, 2 mM MgSO4, 0.1% Triton-X100, 1.0 microM primer/template, 500 microM dGTP, 500 microM dATP (or 2-amino-2′-deoxyadenosine-5′-triphosphate), 500 microM dTTP (or 2-thiothymidine-5′-triphosphate), 200 microM ^32P--CTP and 0.8 units/microL Bst DNA polymerase. The reactions were incubated at 65° C. for 30 minutes, quenched with 5 mM EDTA, ethanol precipitated, dried and resuspended in 10 microL of 10 mM Tris-Cl pH 8.0. The 56-mer template was digested by incubating the resuspended samples with 10 units of lambda exonuclease (Strandase Kit™, (Novagen; Madison, Wis.)) for 30 minutes at 37° C. The reactions were quenched with 5 mM EDTA, ethanol precipitated, dried and resuspended in 10 microL of 10 mM Tris-Cl pH 8.0. The samples were then electrophoresed on 10% denaturing (7M urea) polyacrylamide gels and visualized using phosphorimaging methods.

In test [1] the target is T2, SuperScript II MMLV reverse transcriptase (Moloney murine leukemia virus, UniProt P03355, D1183G/D1242N/E1221Q).
T2 construct: 200 units of SuperScript II MMLV reverse transcriptase (InVitrogen); purchased InVitrogen
The test can be described thus: Synthesis of fluorescently labeled cUNA from pBp-1 T7-RNA template with dCTP-Cy5. The class given is biochemical. The settings on record: substituted for dATP and TTP; one hour. As to the method: The ability to generate fluorescently labeled cUNAs was tested using the pBp-1 T7-RNA template and dCTP-Cy5 fluorescently labeled nucleotide analogue (Perkin-Elmer/NEN). The reverse transcriptase reactions (10.0 uL) were performed in 0.65 mL pre-siliconized microfuge tubes containing the following components: 50 mM Tris-Cl (pH 8.3), 75 mM KCl, 3.0 mM MgCl2, 4.5 mM DTT, 500 uM dGTP (or dITP), 500 uM dATP (or 2-amino-2′-deoxyadenosine-5′-triphosphate), 500 uM TTP (or 2-thiothymidine-5′-triphosphate), the indicated amounts of dCTP and dCTP-Cy5, 40 nM pBp-1 RNA template, 1.0 uM T16N2 primer, 1.0 unit of RNase Out (In Vitrogen), and 100 units of SuperScript II MMLV reverse transcriptase (In Vitrogen). The buffer components, RNA template, and primer were annealed by heating to 75° C. for 4 minutes and quickly cooled to room temperature. The dNTPs and RNase inhibitor were then added and the reactions were initiated by the addition of the reverse transcriptase and incubated at 42° C. At one and three hours, 5.0 uL aliquots were removed, mixed with 0.07 ug of RNase A, and incubated at room temperature for 30 minutes. The ribonucleased reaction mixtures were quenched with EDTA and 8 M urea and separated by electrophoresis on 5% polyacrylamide gels (19:1) containing 1×TBE and 9M urea. The fluorescently-labeled products were visualized using a phosphorimager.

As to `Nc1nc(N)c2ncn([C@H]3C[C@H](O)[C@@H](COP(=O)(O)OP(=O)(O)OP(=O)(O)O)O3)c2n1` [2-amino-2′-deoxyadenosine-5′-triphosphate], on Bst DNA polymerase, the premature termination products entry is recorded as “little if any” and the “full-length 56-mer product” value is “full-length 56-mer product is generated”. Further, the full-length fluorescently-labeled product entry in test [1] is “full-length fluorescently-labeled product is generated”.

`Cc1cn([C@H]2C[C@H](O)[C@@H](COP(=O)(O)OP(=O)(O)OP(=O)(O)O)O2)c(=S)[nH]c1=O` [2-thiothymidine-5′-triphosphate]: on Bst DNA polymerase, the premature termination products result is “little if any” and the “full-length 56-mer product” value was “full-length 56-mer product is generated”. For the same compound, the full-length fluorescently-labeled product result in test [1] was “full-length fluorescently-labeled product is generated”.
